Data as given in article PMC6826616, “Topical 2′-Hydroxyflavanone for Cutaneous Melanoma” (Cancers, 2019).
Read-outs that look alike come from different tables or passages of the source.

Key:
[1] = Single dose pharmacokinetic study of 2HF; assay type: in vivo, Sprague Dawley male rats; details: male SD rats
Protocol: Figure 7 Plasma concentration vs. time profile of 2HF in rats. Mean plasma concentration vs. time profile of 2HF following intravenous and oral administration of 2HF at 5 mg/kg and 10 mg/kg, respectively, to male SD rats (n = 3).
Pharmacokinetic studies of 2HF were performed by GVK Biosciences Pvt. Ltd., Hyderabad, India in Sprague Dawley male rats (~280 g). Rats were dosed either orally through gastric gavage needle of 10 mg/kg 2HF (0.5% Methyl cellulose + 0.5% Tween80) or intravenous 5 mg/kg 2HF (in 10% DMSO). Then, 200–300 µL blood was collected at each time point and plasma was separated; 50 µL plasma sample was deproteinized with 200 µL of acetonitrile followed by centrifugation at 2000× g for 5 min and supernatant was analyzed for 2HF by LC-MS/MS. Pharmacokinetic parameters were calculated for individual animals by a non-compartmental model with Phoenix software version 8.1 (CERTARA, Princeton, NJ, USA).

B16-F10 cells = experiment: MTT cytotoxicity assay, B16-F10; assay type: cell-based; details: Mus musculus
Source text: (§1) We studied the growth-inhibitory effects of 2HF on the B16-F0 and B16-F10 murine melanoma cell lines as well as on the SK-MEL-24 human melanoma cell line. B16-F10 and SK-MEL-24 have been shown in previous studies to be highly resistant to treatment and much more invasive than B16-F0 [32]. […] The absorption value measured upon reduction of the MTT dye by functional mitochondria is an indirect measure of cell number that cannot distinguish inhibited cell proliferation from apoptotic or necrotic cell death. By counting viable (trypan-blue dye-excluding) cells using a hemacytometer, we verified that 2HF did indeed cause cell death.
(§2) Figure 1 Mouse and human melanoma cell survival following 2′-hydroxyflavanone (2HF) treatment.
(§3) The IC50 of 2HF on B16-F0, B16-F10, and SK-MEL-24 cells was determined by MTT cytotoxicity assay. Cells were harvested and Trypan Blue dye exclusion test was used to determine the number of viable cells present in a cell suspension using a hemocytometer. The cell suspension was diluted to 5 × 10^4 cells/mL with Dulbecco’s Modified Eagle’s Medium (DMEM) complete medium and 5000 cells/well were plated in 96-well plates. After 24 h incubation at 37 °C, cells were treated with 2HF concentrations ranging from 0–200 µM (8 replicates per plate). After 48 or 72 h incubation, 40 µL of MTT (5 mg/mL) solution was added. After 4 h incubation, the plate was centrifuged at 700× g for 5 min and medium was aspirated completely. Then, 50 µL DMSO was added to each well to dissolve the purple precipitate on the rocking platform for about 15 min. The absorbance was then measured at 490 nm using a 96-well microplate reader (Spectramax Plus, Molecular Devices, Inc, San Jose, CA, USA).

SK-MEL-24 cells = experiment: MTT cytotoxicity assay, SK-MEL-24; assay type: cell-based; details: Homo sapiens
Source text: as §1, §2, §3

[2] = LC-MS/MS analysis of 2HF in serum after topical application; assay type: in vivo, C57BL/6 mice; details: topical 12 mg 2HF/0.1 mL PLO gel each day for 8 weeks, blood within 2 h after final dosage
Protocol: C57BL/6 mice were administered either 0.1 mL PLO gel or 12 mg 2HF in 0.1 mL PLO gel topically each day for 8 weeks. On the last day, the blood was collected within 2 h after final dosage, and subjected to LC-MS/MS analyses according to established protocol. Briefly, serum from control and 2HF-treated mice was extracted twice with 500 µL ethyl acetate and the organic layers were collected and evaporated to dryness in a speed-vac. The residue was reconstituted in 40 µL methanol containing 0.1% formic acid (FA) for analysis. An LC-MS method was developed for the quantitative analysis of 2HF using an Agilent 6490 triple quadrupole coupled with an Agilent 1290 UHPLC system. In short, the binary pump delivered buffers A (0.1% FA in water) and buffer B (0.1% FA in acetonitrile) over 10 min with the following gradient: From 10% B to 20% B in 1 min, then ramp to 90% B at 6 min, 10% B at 8 min, 10% B at 8.5 min, column equilibration post analysis was 2 min. An Agilent Zorbax, 0.5 × 150 mm, 5 µm particle size was used for the separation at a flow rate of 50 µL/min.

[3] = MTT, 72 h, mean ±SD, n = 5, read-out: IC50 at 72 h (growth/survival)
[4] = Table 1, agent alone, read-out: IC50

oral bioavailability ([1]; 10 mg/kg oral vs 5 mg/kg IV): Poor | plasma concentrations orally compared with IV ([1]; 10 mg/kg oral vs 5 mg/kg IV): two log-order lower | clearance ([1]; after either oral or IV administration): rapid clearance | 2HF in serum [2]: 4.3 ± 0.4 µM
Compound: O=C1CC(c2ccccc2O)Oc2ccccc21 (centres unmarked) [2HF, 2′-hydroxyflavanone]
IC50 (B16-F10 cells; [3]): 47 ± 6 µM | IC50 (B16-F10 cells; [4]): 42 ± 1.83 µM | IC50 (SK-MEL-24 cells; [3]): 44 ± 6 µM | IC50 (SK-MEL-24 cells; [4]): 44.9 ± 1.67 µM
